Source: patent US20260166169A1, “ANTIBODY-DRUG CONJUGATE, PREPARATION METHOD AND USE THEREOF” (priority 2023, published 2026)

System: Detroit 562 cells
Assay: In vitro killing assay of ADC on Detroit562 cells (CCK-8)
Type: cell-based
Conditions: Detroit 562, 5 days, 3-fold dilutions from 300 nM, CCK-8, FIG. 19
Description: Experimental Example 4: In Vitro Killing Assay of ADC on Detroit562 Cells
Detroit 562 cells (purchased from Nan Jing cobioer biosciences Co., Ltd.) were cultured so that a cell density reached to 80%. The cells were collected, plated in a 96-well plate, and the cell density was adjusted to 2-5×10^4/ml. Each well was plated with 100 μL of cells, and the ADC molecules were serially diluted 3 times with an initial concentration of 300 nM. After the dilution was completed, the ADC molecules were added to the cell culture medium and cultured for 5 days, during which the apoptosis of the cells was observed regularly. After 5 days, 15 μL of the CCK-8 kit stock solution was added to the 96-well plate and reacted in an incubator of 37° C. for 0.5-2 h. An absorbance at 450 nm was measured, and cell survival curves were drawn based on OD (optical density) readings and ADC dilution gradients.
Human IgG-DXD prepared in Comparative Example 4, Human IgG-LP1 prepared in Comparative Example 5, Human IgG-LP2 prepared in Comparative Example 7, Hu1H2-2-LP1 prepared in Example 6, Hu1H2-2-LP2 prepared in Example 8, and Hu1H2-2-DXD prepared in Comparative Example 9 were selected as ADC molecules. Wherein Human IgG was used as the isotype control of Hu1H2-2 antibody, and DXD was used as positive drug.

SMILES: CC[C@@]1(O)C(=O)OCc2c1cc1n(c2=O)Cc2c-1nc1cc(F)c(C)c3c1c2[C@@H](NC(=O)OCc1ccc(NC(=O)CNC(=O)[C@H](Cc2ccccc2)NC(=O)CNC(=O)CNC(=O)CCCCCN2C(=O)C=CC2=O)cc1CN(C)C(=O)CN(C)C(=O)CN(C)C(=O)CN(C)C(=O)CN(C)C(=O)CN(C)C(=O)CN(C)C(=O)CN(C)C(=O)CN(C)C(=O)CN(C)C(=O)CN(C)C(C)=O)CC3 [LP-2]
- in vitro killing effect (cell survival curve): more excellent killing effects in vitro on Detriot562
